Experimental data taken from patent US20230107216A1, “PANTETHEINE DERIVATIVES AND USES THEREOF” (Comet Therapeutics, Inc., priority 2018, published 2023).
Read-outs that look alike come from different tables or passages of the source.

Key:
[1] = tested on: tyrosine hydroxylase positive mesencephalic neurons injured by 6-OHDA; experiment: Neuroprotective effect on damage induced by 6-OHDA on culture of mesencephalic neurons; assay type: cell-based; conditions: Rattus norvegicus, Neuron, 6-OHDA 15 μM, 48h, read-out: % reversion of TH positive neurons (6-OHDA-mediated degradation of dopaminergic neurons)
Protocol: The protective effect of compounds of the present disclosure was determined on 6-OHDA-mediated injury on mesencephalon neuronal cultures.
A female Wistar rat (Janvier; France) of 15 days gestation was terminated by cervical dislocation, the fetuses were removed from the uterus and their brains were harvested and placed in ice-cold medium (Leibovitz's L15 medium, Gibco). Only ventral mesencephalic flexure was used for the cell preparations. The midbrain was dissociated by trypsinization. The reaction was stopped, and the suspension was triturated and centrifuged. The pellet of dissociated cells was resuspended in chemically defined medium consisted of Neurobasal (Gibco, 21103049), containing B27 supplement (Gibco, A3582801) and L-glutamine (Gibco, 25030081), 10 ng/ml (BDNF; Pepro Tech, France, 450-02) and 1 ng/ml (GDNF; Pepro Tech, 450-51).
Viable primary rat embryo mesencephalic cells were counted and seeded on 96-multi-wells plate precoated with poly-L-lysine. Cells were maintained in a humidified incubator at 37° C. in 5% CO2-95% air atmosphere and medium changed on day 2. On day 6, the culture medium was removed and replaced by new media without neurotrophic factors containing the compounds of the present disclosure (50-10 μM) or vehicle (0.1% DMSO). After 1h exposure, injury of mesencephalon neuronal cultures was induced by 6-OHDA (15 μM) for further 48h. A mixture of the growth factors GDNF (1 ng/ml) and BDNF (10 ng/ml) were used as reference compound. On day 8, the tyrosine hydroxylase positive neurons were evaluated. Cultures were fixed 30 min at 4° C. with paraformaldehyde in PBS (4%, Sigma). After, cells were permeabilized with 0.1% Triton X100 for 30 min, saturated with PBS containing 3% of BSA (bovine serum albumin) and incubated 2h with anti-tyrosine hydroxylase antibody (Sigma, 1:10000; clone TH-2) at 1/10000 in PBS containing 0.5% of BSA. Cells were washed three times with PBS containing 0.5% of BSA and incubated 1h with goat anti mouse antibody coupled with AF488 (Invitrogen A11001) diluted at 1/1000 in PBS containing 0.5% of BSA. Finally, nuclei were stained with DAPI (Thermo fisher, D1306) at 1/1000 in PBS containing 0.5% of BSA. After rinsing with PBS, the plate was visualized and examined with Cell Insight HCS (Thermo Scientific) to determine the number of tyrosine hydroxylase positive cells per well.
The results for each well were expressed as a percentage by setting the density of tyrosine hydroxylase positive cells under control conditions to 100%. Then the result for each condition was reported as mean±SEM from 4 independent cultures.
A global analysis of the data was performed using a one-way analysis of variance (ANOVA), followed by Fisher's Protected Least Significant Difference when applicable. The level of significance was set to p<0.05.

[2] = tested on: Bronchial epithelial cells co-cultured with dermal fibroblast (BF4T system); experiment: BioMAP BF4T system (TNFα and IL-4); assay type: cell-based, human; conditions: for activation at 10 µM / activation at 1 µM: Homo sapiens, 24 h, read-out: % increase in VCAM-1
[3] = tested on: Subnormal activation of pyruvate dehydrogenase complex (PDH) primary fibroblasts GM01503 (GM1503A); experiment: Total NAD+ + NADH and NAD+ (NAD/NADH-Glo), PDH fibroblasts GM01503; assay type: cell-based; conditions: Homo sapiens, Fibroblast, 24h, read-out: Increase in Total NAD+ + NADH
Protocol: Primary adherent fibroblasts were cultured in minimum essential medium (MEM) (Gibco, 25030081) supplemented with 2 mM L-Glutamine (Gibco, 25030081), 15% fetal bovine serum (FBS) (Gibco, 26400044) and 1% penicillin/streptomycin (Gibco, 5140122) at 37° C. and 5% CO2. Cells were collected for either passaging or experiment at ˜70-80% confluence. Cells were obtained by trypsinization and seeded in cell culture microplates either white plate (Thermo Fisher Scientific, 152028) for luminescent measurement or black plate (Thermo Fisher Scientific, 165305) for fluorescent based read out for different assays listed below. Cells were obtained by trypsinization and […] were seeded and allowed to adhere for 16-18 hours to have confluency around 70-80% in the cell well with culture media. After 24 hours prior to measurements (37° C., 5% CO2) media was changed to Dulbecco's Modified Eagle Medium (DMEM, Agilent Seahorse cat #103575-100) with the appropriate supplements as stated below.
Primary fibroblasts assayed were Propionic Acidemia (PA) (GM03590 Coriell Institute for Medical Research, Tsi 6337 Trans-Hit Bio), Methylmalonic Acidemia (MMA) (Tsi 5224 Trans-Hit Bio), Subnormal activation of pyruvate dehydrogenase complex (PDH) (GM01503 Coriell Institute for Medical Research), Very long-chain acyl-CoA dehydrogenase (VLCAD) (GM17475), Leigh Syndrome (LS) (GM03672, GM13411 Coriell Institute for Medical Research), Pyruvate Carboxylase Deficiency (PC) (GM00444 Coriell Institute for Medical Research). 10 μM of Compounds were added for 2 hours in PA, MMA lines and for 24h for the other fibroblast lines.
Assay was performed according to manufacturer instructions (NAD/NADH-Glo Assay Promega, G9072). The NAD/NADH-Glo Assay is a bioluminescent assay for detecting total oxidized and reduced nicotinamide adenine dinucleotides (NAD+ and NADH, respectively) from which ratio of NAD/NADH can be calculated. Briefly, for every assay a 12-point standard curve was prepared ranging from 400 nM to 0.625 nM. Media was removed and replaced with 50 μl of PBS for both assays.
For individual NAD+ and NADH measurement, 50 μl of 1% DTAB (Sigma Cat #D5047) (cell lysis reagent) in 0.2N NaOH was added to the plate and a total 100 μl of lysate was split into two plates with 50 μl each. 25 μl of 0.4N HCl were added to the NAD+ plate and both NAD+ and NADH plate were heated at 60° C. for 15 minutes. The acid and heat treatment destroyed NADH allowing individual NAD+ measurement while heating in basic conditions destroys NAD+ allowed individual NADH measurements. The plates were allowed to come to room temperature for 10 minutes and Trizma base (Sigma, T1699) was added to the NAD+ plate to neutralize the acid and HCl Trizma hydrochloride (Sigma, T2694) was added to the NADH plate. The NADNADH glo reagent was prepared by adding: 625 μl of NAD cycling substrate, 125 μl of reductase, 125 μl of reductase substrate, 125 μl NAD cycling enzyme to total of the 25 ml of NAD GLO reagent. 1:1 ratio of total volume of reagent was added to the individual NAD+, NADH measurement (total 100 μl) and 50 μl for total NAD/NAH measurement. Luminescence was read between 30-60 minutes within the linear range.
A total dead cell count was performed as described in Example 817 and only alive cells were used for analysis.

[4] = 10 uM, procedure of Example 830
[5] = PDH GM1503A P10, assay condition A

CC(C)(CO)[C@@H](O)C(=O)NCCC(=O)NCCSC(=O)CCC(=O)O [Compound 1, (R)-4-((2-(3-(2,4-dihydroxy-3,3-dimethylbutanamido)propanamido)ethyl)thio)-4-oxobutanoic acid]
inhibition at 10 µM [1]: ≥ 10%

C[C@@H](O)CC(=O)SCCNC(=O)CCNC(=O)[C@H](O)C(C)(C)CO [Compound 38, S-2-{3-[(R)-2,4-dihydroxy-3,3-dimethylbutyrylamino]propionylamino} ethyl (R)-3-hydroxybutanethioate]
inhibition at 10 µM [1]: ≥ 30%

C[C@@H](O)CC(=O)CC(=O)SCCNC(=O)CCNC(=O)[C@H](O)C(C)(C)CO [Compound 42, (2R)-2,4-dihydroxy-N-[2-[(2-[[(5R)-5-hydroxy-3-oxohexanoyl]sulfanyl]ethyl)carbamoyl]ethyl]-3,3-dimethylbutanamide]
% decrease in IL-1α ([2]; 10 uM): ≥10%
% increase in Eotaxin-3 [2, 4]: ≥10%
% increase in MMP-3 [2, 4]: ≥10%
% increase in keratin 8/18 [2, 4]: ≥10%
activation at 10 µM [2, 4]: ≥ 10%
inhibition at 50 µM [1]: ≥ 30%

CC(C)(COC(=O)OCC[N+](C)(C)C)[C@@H](O)C(=O)NCCC(=O)NCCSC(=O)CCC(=O)O [Compound 116, [2-([[(3R)-3-[[2-([2-[(3-carboxypropanoyl)sulfanyl]ethyl]carbamoyl)ethyl]carbamoyl]-3-hydroxy-2,2-dimethylpropoxy]carbonyl]oxy)ethyl]trimethylazanium]
% increase in MMP-3 ([2]; 1 uM, procedure of Example 830): ≥10%
% increase in keratin 8/18 ([2]; 1 uM, procedure of Example 830): ≥10%
% decrease in IL-1α ([2]; 10 uM): ≥10%
activation at 10 µM [2, 4]: ≥ 10%
inhibition at 10 µM [1]: ≥ 30%

COC(=O)CC(SCCNC(=O)CCNC(=O)[C@H](O)C(C)(C)COC(C)=O)C(=O)OC (stereo partly drawn) [Compound 149, 1,4-dimethyl 2-[(2-[3-[(2R)-4-(acetyloxy)-2-hydroxy-3,3-dimethylbutanamido]propanamido]ethyl)sulfanyl]butanedioate]
% decrease in MMP-9 ([2]; 1 uM, procedure of Example 830): ≥10%
% increase in Eotaxin-3 [2, 4]: ≥10%
activation at 10 µM [2, 4]: ≥ 10%

CC(C)(CO)[C@@H](O)C(=O)NCCC(=O)NCCSC(=O)CCCN [Compound 370, (2R)—N-[2-([2-[(4-aminobutanoyl)sulfanyl]ethyl]carbamoyl)ethyl]-2,4-dihydroxy-3,3-dimethylbutanamide]
inhibition at 50 µM [1]: ≥ 30%

CC(C)(CO)[C@@H](O)C(=O)NCCC(=O)NCCSC(=O)[C@@H](N)Cc1ccc(O)c(O)c1 [Compound 371, (2R)—N-[2-[(2-[[(2S)-2-amino-3-(3,4-dihydroxyphenyl)propanoyl]sulfanyl]ethyl)carbamoyl]ethyl]-2,4-dihydroxy-3,3-dimethylbutanamide]
% increase in MCP-1 ([2]; 1 uM, procedure of Example 830): ≥10%
% increase in MMP-9 ([2]; 1 uM, procedure of Example 830): ≥10%
% increase in Eotaxin-3 [2, 4]: ≥10%
activation at 1 µM ([2]; 1 uM, procedure of Example 830): ≥ 10%
inhibition at 50 µM [1]: ≥ 30%

CCCCCCC(=O)SCCNC(=O)CCNC(=O)[C@H](O)C(C)(C)CO [Compound 372, (2R)—N-(2-[[2-(heptanoylsulfanyl)ethyl]carbamoyl]ethyl)-2,4-dihydroxy-3,3-dimethylbutanamide]
activation at 1 µM ([2]; 1 uM, procedure of Example 830): ≥ 10%

CCC(=O)CC(=O)SCCNC(=O)CCNC(=O)[C@H](O)C(C)(C)CO [Compound 382, (2R)-2,4-dihydroxy-3,3-dimethyl-N-[2-([2-[(3-oxopentanoyl)sulfanyl]ethyl]carbamoyl)ethyl]butanamide]
activation at 10 µM [3, 5]: ≥ 10%

CC(=O)SCCNC(=O)CCNC(=O)[C@H](O)C(C)(C)COC(=O)[C@@H](N)Cc1ccc(O)c(O)c1 [Compound 498, (3R)-3-[(2-[[2-(acetylsulfanyl)ethyl]carbamoyl]ethyl)carbamoyl]-3-hydroxy-2,2-dimethylpropyl (2S)-2-amino-3-(3,4-dihydroxyphenyl)propanoate]
% increase in 1L-8 ([2]; 1 uM, procedure of Example 830): ≥10%
% increase in MCP-1 ([2]; 1 uM, procedure of Example 830): ≥10%
% decrease in IL-1α ([2]; 10 uM): ≥10%
% increase in Eotaxin-3 [2, 4]: ≥10%
% increase in MMP-9 [2, 4]: ≥10%
activation at 10 µM [2, 4]: ≥ 10%
inhibition at 50 µM [1]: ≥ 30%

CC(O)C(C(=O)SCCNC(=O)CCNC(=O)[C@H](O)C(C)(C)CO)C(C)O (stereo partly drawn) [Compound 1285, (2R)-2,4-dihydroxy-N-[2-[(2-[[3-hydroxy-2-(1-hydroxyethyl)butanoyl]sulfanyl]ethyl)carbamoyl]ethyl]-3,3-dimethylbutanamide]
activation at 10 µM [3, 5]: ≥ 10%

COC(=O)CCC(=O)SCCNC(=O)CCNC(=O)[C@H](OC(=O)CN)C(C)(C)CO [Compound 1294, methyl 4-[(2-[3-[(2R)-2-[(2-aminoacetyl)oxy]-4-hydroxy-3,3-dimethylbutanamido]propanamido]ethyl)sulfanyl]-4-oxobutanoate]
% decrease in tPA [2, 4]: ≥10%

COC(=O)CCC(=O)SCCNC(=O)CCNC(=O)[C@H](OC(=O)CNC(C)=O)C(C)(C)CO [Compound 1298, methyl 4-[(2-[3-[(2R)-2-[(2-acetamidoacetyl)oxy]-4-hydroxy-3,3-dimethylbutanamido]propanamido]ethyl)sulfanyl]-4-oxobutanoate]
activation at 10 µM [2, 4]: ≥ 10%

CC(C)(CO)[C@@H](O)C(=O)NCCC(=O)NCCSC(=O)CCCO [Compound 1304, (2R)-2,4-dihydroxy-N-[2-([2-[(4-hydroxybutanoyl)sulfanyl]ethyl]carbamoyl)ethyl]-3,3-dimethylbutanamide]
activation at 10 µM ([3]; PDH GM1503A P10, assay condition B): ≥ 10%
